Usually viability stands for a read-out of living cells in per cent, often relative to untreated cells.

In paper PMC12040169 (PLOS Biology, 2025) one finds viability data, which are given here for 81 molecules.

The first series is described as follows: in vitro. To be noted: human, hela cells, % viability.
In the case of `O=C(CSc1cnn[nH]1)Nc1cccc(C(F)(F)F)c1` [CBK269888], the viability at 28.5 h, 10 µM stood at 90.8%.
With `CN(C(=O)c1cccn1C)C1CCN(c2ncnc3ccccc23)CC1` [CBK306110], the viability at 28.5 h, 10 µM is 91.8%.
On to `Cn1cc(NC(=O)CCn2c(C(F)F)cc3cccnc32)cn1` [CBK284740], for which the viability at 28.5 h, 10 µM came out at 90.2%.
On to `COc1ccc2[nH]c3c(c2c1)CCOC31CCN(C(=O)CC(C)CC(=O)O)CC1` (stereo not drawn) [CBK047197], for which the viability at 28.5 h, 10 µM came to 100%.
As to `O=c1[nH]c2ncc(-c3ccc4c(c3)OCO4)nc2n1C1CC1` [CBK064922], the viability at 28.5 h, 10 µM is 98.5%.
As for `CCOc1ccc(CN(Cc2cc(=O)n3nc(-c4ccccc4)sc3n2)CC(C)C)cc1` [CBK294412], the viability at 28.5 h, 10 µM worked out at 103%.
Same read-out and setting: with `O=C(CCn1c(-c2cccnc2)cc2cccnc21)NC1CC1` [CBK282622] the figure was 95.9%; with `Cc1ccc(-n2c(=O)[nH]c3c(C(=O)Nc4ccccc4)cn(C)c3c2=O)cc1` [CBK287651], 93.9%.
On the same count and under the same terms, with `c1cncc(Nc2cccc(-c3ccco3)n2)c1` [CBK037742] the figure was 100%; with `CCN1CCN(c2ccc(NC(=O)Cc3cn4ccsc4n3)cc2)CC1` [CBK305892], 81.3%.
For the molecule `Cc1cccc(C2(O)CCN(C(=O)CCCc3ccncc3)CC2)c1` [CBK282506], the viability at 28.5 h, 10 µM stood at 111%.
With `CCNc1nc(-c2cccc(/C=C/C(=O)O)c2)cn2ccnc12` [CBK066373], the viability at 28.5 h, 10 µM stood at 88.5%.
Turning to `COc1ccc(-n2c(CNCc3ccc4c(c3)OCO4)nc3ccccc3c2=O)cc1` [CBK074522], the viability at 28.5 h, 10 µM was 102%.
For the molecule `c1ccc2[nH]c(NCCN3CCOCC3)nc2c1` [CBK268791], the viability at 28.5 h, 10 µM is 96.7%.
As to `CCCc1n[nH]c(-c2cccc(C)c2C)c1C(=O)OCC` [CBK113545], the viability at 28.5 h, 10 µM came to 106%.
On to `Ic1cnn(Cc2nc(-c3ccc4c(c3)OCO4)no2)c1` [CBK270050], for which the viability at 28.5 h, 10 µM worked out at 106%.
For the molecule `CNCS(=O)(=O)C(F)(F)S(=O)(=O)N(C)C` [CBK018820], the viability at 28.5 h, 10 µM is 89.7%.
On the same count and under the same terms, with `CCNC(=O)N1C[C@@H]2OCC(=O)N(Cc3ccccc3)[C@@H]2C1` [CBK289679] the figure was 104%; with `C=CCNC(=O)N[C@H]1[C@H](O)[C@@H](N2CCCC2)[C@@H]2OC[C@H]1O2` [CBK288829], 92.6%; with `CCOC(=O)N1CCC(NS(=O)(=O)c2ccc(NC(C)=O)cc2)CC1` [CBK045470], 97.8%.
On to `N=C1NS(=O)(=O)NC1c1ccc(Cl)cc1` (stereo not drawn) [CBK263858], for which the viability at 28.5 h, 10 µM came out at 88.4%.
In the case of `O=C(CC1(C(F)(F)F)NCCN1)c1cccc([N+](=O)[O-])c1` [CBK263443], the viability at 28.5 h, 10 µM was found to be 83.1%.
With `COc1ncc(-c2cnc3[nH]c(=O)n(CC4CCOCC4)c3n2)cn1` [CBK064898], the viability at 28.5 h, 10 µM turned out to be 98.1%.
`OCc1ccc(-c2nccnc2NCCc2c[nH]c3ccccc23)cc1` [CBK038004]: the viability at 28.5 h, 10 µM came to 98.8%.
With `CS(=O)(=O)c1ccc(-c2cnc(N)c(NCCCO)n2)cc1` [CBK063587], the viability at 28.5 h, 10 µM turned out to be 87.3%.
Same read-out and setting: for `Cc1ccccc1Nc1nnc(-c2ccc(C(=O)NCCO)cc2)c2ccccc12` [CBK263743] the value was 86.4%; for `Cc1ccc(C(O)CN(C)Cc2c(C)nn(C)c2C)c(C)c1` (stereo not drawn) [CBK282939], 84.7%; for `CC(=O)Nc1cc(NC(C)=O)c(O)c(C(=O)O)c1` [CBK009871], 88.6%.
As for `CC(=O)Nc1ccc(NS(=O)(=O)c2ccc(C)c(C(=O)O)c2)cc1` [CBK295162], the viability at 28.5 h, 10 µM turned out to be 85.9%.
Take `Cc1cc2occ(CC(=O)NCc3cc(C4CC4)[nH]n3)c2cc1C` [CBK282576]: the viability at 28.5 h, 10 µM is 87.1%.
Regarding `COc1ccc(CN2CCN(C(=O)c3cccc(N(C)C)c3)CC2)cc1` [CBK305713], the viability at 28.5 h, 10 µM was 98%.
In the case of `Cn1c(=O)c2c(ncn2CC(=O)Nc2ccc3ccccc3c2)n(C)c1=O` [CBK133722], the viability at 28.5 h, 10 µM was 81.2%.
For `CC(C)CC(=O)N1CCC(Cc2ccccc2-c2cccs2)(C(=O)NC(C)C)CC1` [CBK285898], the viability at 28.5 h, 10 µM was determined as 87.3%.
Same read-out and setting: for `O=c1[nH]c(SCc2n[nH]c(=S)n2-c2ccccc2)nc2sc3c(c12)CCCC3` [CBK300538] the value was 118%; for `CC(C)NCC(O)COCc1ccc(Cl)cc1` (stereo not drawn) [CBK261406C], 108%; for `CN(C)S(=O)(=O)c1cccnc1OCC(O)CNC(C)(C)C` (stereo not drawn) [CBK058059], 84.5%.
For the molecule `Cc1cc(C(=O)O)cc(S(=O)(=O)N2CCOCC2)c1C` [CBK264497], the viability at 28.5 h, 10 µM came to 89.5%.
In the case of `O=C(Nc1cccc(C(F)(F)F)c1)c1cnsn1` [CBK018923], the viability at 28.5 h, 10 µM came out at 88.9%.
`O=C(NC1=NC2CCCCC2N1)c1ccccc1` (stereo not drawn) [CBK266354]: the viability at 28.5 h, 10 µM was 103%.
Consider `O=C(O)c1ccc(CCN2CCCC2)nc1` [CBK034220], for which the viability at 28.5 h, 10 µM was 107%.
For the molecule `FC(F)(F)Oc1ccc(-c2nccnc2OCC2COc3ccccc3O2)cc1` (stereo not drawn) [CBK106845], the viability at 28.5 h, 10 µM is 97.7%.
Same read-out and setting: with `COc1ccc2c(c1)c(C(=O)N1CCC3(CCNCC3)CC1)c(C)n2C` [CBK306562] the figure was 72.9%; with `COc1ccc(C(=O)Nc2nc3ccc(S(N)(=O)=O)cc3s2)cc1` [CBK291147], 96.9%; with `CCN(CC)c1ccc(C(=O)CN2CCC(Oc3nccnc3OCc3cccnc3)CC2)cc1` [CBK083167T], 112%.
With `CN(C)C(=O)c1cccc(NC(=O)C2CCCCC2)c1` [CBK304515], the viability at 28.5 h, 10 µM amounted to 89.7%.
In the case of `CCC(C)(C)c1ccc(S(=O)(=O)N2CCN(Cc3ccc(O)c(F)c3)CC2)cc1` [CBK062968], the viability at 28.5 h, 10 µM stood at 91.7%.
As for `Cc1ccn2cc(-c3cc4c(ccc5ccccc54)oc3=O)nc2c1` [CBK287313], the viability at 28.5 h, 10 µM is 100%.
In the case of `COc1ccc(C(=O)NNC(=O)c2cccc(O)c2)cc1` [CBK262594], the viability at 28.5 h, 10 µM is 118%.
With `CN1CCN(CCCNC(=O)N(CCC#N)C2CCCCC2)CC1` [CBK156346], the viability at 28.5 h, 10 µM came to 112%.
As for `CCOc1ccc(-c2ccnc(N3CCOC(CN)C3)n2)cc1C(=O)O` (stereo not drawn) [CBK307644], the viability at 28.5 h, 10 µM is 84%.
Consider `CSCCCNC(=O)N1CCNC(=O)C1` [CBK155848], for which the viability at 28.5 h, 10 µM is 98.3%.
As to `O=S(=O)(Nc1cccc(-c2cnco2)c1)c1ccc(-c2cc(C(F)(F)F)on2)s1` [CBK067124], the viability at 28.5 h, 10 µM was 100%.
In the case of `O=C(CSc1ncn(-c2ccccc2)n1)c1ccc(Br)cc1` [CBK027014], the viability at 28.5 h, 10 µM was 91.6%.
`CN(C)CCCNC(=O)c1ccc([N+](=O)[O-])o1` [CBK262118]: the viability at 28.5 h, 10 µM is 92.8%.
With `CS(=O)(=O)c1ccc(CN2C[C@@H]3OCC(=O)N(c4ccccc4)[C@@H]3C2)cc1` [CBK289237], the viability at 28.5 h, 10 µM was 93.2%.
On the same count and under the same terms, with `c1ccc(N2CCN(c3cccc(-c4ccc5c(c4)OCO5)n3)CC2)nc1` [CBK036851] the figure was 104%.
With `COc1ccnc(N2CCN(C(=O)CCc3ccsc3)CC2)n1` [CBK306350], the viability at 28.5 h, 10 µM amounted to 90.5%.
On the same count and under the same terms, with `C=CCNC(=O)CN1CCC(c2ccc(OC)cc2)CC1` [CBK283560] the figure was 106%; with `CCc1nnc(SCC(=O)N2c3ccccc3Sc3ccccc32)[nH]1` [CBK268687], 110%.
The same measure, in the same setting: for `Cc1ccc(/C=N/NC(=O)C(C)Oc2ccccc2Br)o1` (stereo not drawn) [CBK262226] the value was 103%; for `CC(C)Nc1cc(Sc2ccccc2N)ncn1` [CBK093729], 91.6%.
On to `COC(=O)[C@H](NC(=O)C1CCN(C(=O)OCc2ccccc2)CC1)c1ccccc1` [CBK081466], for which the viability at 28.5 h, 10 µM was determined as 88.1%.
Turning to `Cc1ccc(S(=O)(=O)NCCSc2ccc(Cl)cc2)cc1[N+](=O)[O-]` [CBK264126], the viability at 28.5 h, 10 µM is 96.8%.
For `COc1ccccc1NC(=S)NCCN(C)C` [CBK265343], the viability at 28.5 h, 10 µM is 111%.
In the case of `COc1ccc(C(=O)Nn2c(SCC(=O)c3ccc(F)cc3)nc3ccccc3c2=O)cc1` [CBK266688], the viability at 28.5 h, 10 µM was 99.7%.
As for `O=C(CCn1cccn1)N1Cc2ccccc2CC1C1CCOCC1` (stereo not drawn) [CBK282262], the viability at 28.5 h, 10 µM turned out to be 83.8%.
Consider `Nc1cc(=O)[nH]c(=O)n1CCc1c[nH]c2ccccc12` [CBK288190], for which the viability at 28.5 h, 10 µM turned out to be 98.1%.
`Cn1c2ccc(Br)cc2c2nnc(SCC(=O)N3c4ccccc4Sc4ccccc43)nc21` [CBK263900]: the viability at 28.5 h, 10 µM worked out at 88.7%.
`CC1(C)OC(N2CCN(Cc3ccccc3)CC2)=Nc2ccccc21` [CBK023933C]: the viability at 28.5 h, 10 µM stood at 90.9%.
On to `Cc1nc(-c2ccc(CNC(=O)C(Cc3ccccc3)N3CCCC3)cc2)ccc1C(N)=O` (stereo not drawn) [CBK286017], for which the viability at 28.5 h, 10 µM worked out at 92.6%.
As for `C[C@H](Nc1cncc(-c2ccc(F)cc2F)n1)c1ccccc1` [CBK065684], the viability at 28.5 h, 10 µM turned out to be 98.9%.
In the case of `O=S(=O)(Nc1ccc2[nH]ccc2c1)c1c(Cl)cc(C(F)(F)F)cc1Cl` [CBK156328], the viability at 28.5 h, 10 µM is 75.5%.
As for `O=S(=O)(c1ccccc1)N1CCCC1c1cccs1` (stereo not drawn) [CBK057002], the viability at 28.5 h, 10 µM was 110%.
Turning to `CCN(CC)CCN(C)C1CCN(C)CC1` [CBK261917], the viability at 28.5 h, 10 µM was 94.7%.
Turning to `CN1CCN(C(=O)c2ccc3nc(-c4ccccc4)c(-c4ccccc4)nc3c2)CC1` [CBK267257], the viability at 28.5 h, 10 µM was 98.7%.
Take `Cc1cc(NS(=O)(=O)c2cccc3cccnc23)n(C)n1` [CBK067242]: the viability at 28.5 h, 10 µM turned out to be 89.1%.
Regarding `O=C(Cc1ccc(F)cc1)N1CCC(c2cccc(Cc3ccccc3F)n2)CC1` [CBK286213], the viability at 28.5 h, 10 µM worked out at 117%.
On the same count and under the same terms, with `c1ccc(CCCN2CCN(C3CCN(Cc4ccccc4)CC3)CC2)cc1` [CBK263457] the figure was 84.8%.

The series is the same for the next values; noted with them: human, hela cells, % viability, bulk resorufin, single well.
Turning to `CC(=O)N1CCC2(CC1)OCc1cc(-c3cnc4ccccc4c3)ccc1O2` [CBK060976], the viability at 28.5 h, 10 µM amounted to 93.8%.
In the case of `CC1(C)CC(=O)C(C2(O)C(=O)Nc3ccc(Br)cc32)CO1` (stereo not drawn) [CBK263410], the viability at 28.5 h, 10 µM was found to be 92.3%.
`CCN(CC)CCN(C)Cc1ccc2ccc3cccc4ccc1c2c34` [CBK261859]: the viability at 28.5 h, 10 µM stood at 103%.
